Measured values: patent publication US8476274B2, “Biaryl spiroaminooxazoline analogues as Alpha2C adrenergic receptor modulators” (Merck Sharp & Dohme Corp., priority 2008, dated 2013)

Each compound was assayed against T1, α2C receptor (Homo sapiens, UniProt P18825) (assay: binding inhibition (Ki) at the α2C receptor). Details: compounds classed as α2C antagonists; read-out: Ki at the α2C receptor subtype.
T1 sequence (P18825 1-462): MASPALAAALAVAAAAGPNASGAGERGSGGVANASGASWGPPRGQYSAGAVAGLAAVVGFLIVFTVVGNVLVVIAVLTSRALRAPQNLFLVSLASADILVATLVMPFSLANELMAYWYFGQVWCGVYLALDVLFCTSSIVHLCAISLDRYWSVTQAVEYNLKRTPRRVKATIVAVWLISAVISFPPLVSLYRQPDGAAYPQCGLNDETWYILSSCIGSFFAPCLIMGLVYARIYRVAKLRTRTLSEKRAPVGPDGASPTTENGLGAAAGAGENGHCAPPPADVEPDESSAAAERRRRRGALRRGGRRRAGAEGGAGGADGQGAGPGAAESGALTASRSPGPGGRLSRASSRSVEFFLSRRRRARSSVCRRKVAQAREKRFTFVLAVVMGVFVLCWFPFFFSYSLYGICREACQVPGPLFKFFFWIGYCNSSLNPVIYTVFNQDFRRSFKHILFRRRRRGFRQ
Description: A compound is defined to be an antagonist of the alpha-2C receptor if the compounds's efficacy at the α2C receptor is <30% Emax (GTPγS assay) and the binding inhibition of at the α2C receptor (Ki) is <500 nM, preferably <200 nM, and most preferably <20 nM.
Efficacy agonist activity values (Emax, GTPγS assay) for α2A and α2C were determined by following the general procedure detailed by Umland et. al (“Receptor reserve analysis of the human α2c-adrenoceptor using [^35S]GTPγS and cAMP functional assays” European Journal of Pharmacology 2001, 411, 211-221). For the purposes of the present invention, a compound is defined to be a specific or at least functionally selective agonist of the α2C receptor subtype if the compound's efficacy at the α2C receptor is ≧30% Emax (GTPγS assay) and its efficacy at the α2A receptor is 35% Emax (GTPγS assay). Additionally, for the purposes of this invention, a compound is defined to be an antagonist of the α2C receptor subtype if the compound's efficacy at the α2C receptor is <30% Emax (GTPγS assay) and the Ki at the α2C receptor subtype was <500 nM, preferentially <200 nM, and most preferentially <20 nM.

**Q.** Which Ki does the source give for `NC1=N[C@@]2(CCc3c(cccc3-c3ccoc3)C2)CO1` [Compound 21I] here?
**A.** Its Ki is < 200 nM.

**Q.** For `NC1=NC2(CO1)Cc1ccc(-c3ccccc3)cc1C2` (racemic) [(±)-8E], which Ki is on record?
**A.** The Ki was < 200 nM.

**Q.** Which Ki does the source give for `NC1=N[C@@]2(CCc3cccc(-c4cccnc4)c3C2)CO1` [Compound 145] here?
**A.** Its Ki is < 200 nM.

**Q.** `COc1ncc(-c2cccc3c2CCC2(COC(N)=N2)C3)cn1` (racemic) [(±)-133] was tested. Which Ki did it give?
**A.** The Ki was < 200 nM.

**Q.** `Cc1ccncc1-c1cccc2c1C[C@@]1(CC2)COC(N)=N1` [Compound 151] was tested. Which Ki did it give?
**A.** The Ki was < 200 nM.

**Q.** `Cc1noc(C)c1-c1cccc2c1CC1(CC2)COC(N)=N1` (racemic) [(±)-113] was tested. Which Ki did it give?
**A.** The Ki was < 200 nM.

**Q.** `Cc1n[nH]c(C)c1-c1ccc2c(c1)CC1(CC2)COC(N)=N1` (racemic) [(±)-101] was tested. Which Ki did it give?
**A.** The Ki was < 200 nM.

**Q.** `NC1=N[C@@]2(CCc3c(cccc3-c3cccnc3)C2)CO1` [Compound 21K] was tested. Which Ki did it give?
**A.** Its Ki is < 200 nM.

**Q.** With `N#Cc1ccc(-c2cccc3c2CC2(CC3)COC(N)=N2)cc1` (racemic) [(±)-6K] as the compound, how does the Ki read?
**A.** Its Ki is < 200 nM.

**Q.** `NC1=NC2(CCc3c(cccc3-c3cncs3)C2)CO1` (racemic) [(±)-129] was tested. Which Ki did it give?
**A.** The Ki was < 200 nM.

**Q.** For `NC1=NC2(CCO1)CCc1c(cccc1-c1cncnc1)C2` (racemic) [(±)-57], which Ki is on record?
**A.** Its Ki is < 200 nM.

**Q.** How did the Ki turn out when `NC1=N[C@@]2(CCc3c(cccc3-c3ccco3)C2)CN1` [Compound 238] was run?
**A.** The Ki was < 200 nM.

**Q.** With `COc1cncc(-c2cccc3c2CC2(CC3)COC(N)=N2)c1` (racemic) [(±)-112] as the compound, how does the Ki read?
**A.** Its Ki is < 200 nM.

**Q.** With `NC1=NC2(CO1)Cc1ccc(-c3cncnc3)cc1C2` (racemic) [(±)-8] as the compound, how does the Ki read?
**A.** The Ki was < 200 nM.

**Q.** With `CC1=N[C@@]2(CCc3c(cccc3-c3cncnc3)C2)CN1` [Compound 213] as the compound, how does the Ki read?
**A.** The Ki was < 200 nM.

**Q.** How did the Ki turn out when `Cc1n[nH]c(C)c1-c1cccc2c1CC1(CC2)COC(N)=N1` (racemic) [(±)-114] was run?
**A.** The Ki was < 200 nM.

**Q.** `N#Cc1cccc(-c2cccc3c2CC2(CC3)COC(N)=N2)c1` (racemic) [(±)-6J] was tested. Which Ki did it give?
**A.** The Ki was < 200 nM.

**Q.** With `Cc1n[nH]c(C)c1-c1cccc2c1CC1(COC(N)=N1)C2` (racemic) [(±)-50L] as the compound, how does the Ki read?
**A.** The Ki was < 200 nM.

**Q.** How did the Ki turn out when `CN(C)c1ncc(-c2cccc3c2CC2(CC3)COC(N)=N2)cn1` (racemic) [(±)-3] was run?
**A.** The Ki was < 200 nM.

**Q.** With `NC1=N[C@]2(CCc3cccc(-c4cncnc4)c3C2)CO1` [Compound 149] as the compound, how does the Ki read?
**A.** The Ki was < 200 nM.

**Q.** With `NC1=NC2(CO1)Cc1ccc(-c3cccnc3)cc1C2` (racemic) [(±)-8I] as the compound, how does the Ki read?
**A.** Its Ki is < 200 nM.

**Q.** With `Cc1ccncc1-c1cccc2c1C[C@]1(CC2)COC(N)=N1` [Compound 150] as the compound, how does the Ki read?
**A.** Its Ki is < 200 nM.

**Q.** For `NC1=N[C@@]2(CCc3ccc(-c4cncnc4)cc3C2)CO1` [Compound 142], which Ki is on record?
**A.** The Ki was < 200 nM.

**Q.** With `NC1=N[C@]2(CCc3cc(Br)ccc3C2)CO1` (racemic) [(±)-340] as the compound, how does the Ki read?
**A.** The Ki was < 200 nM.

**Q.** How did the Ki turn out when `NC1=N[C@@]2(CCc3cccc(-c4ccccc4)c3C2)CO1` [Compound 143] was run?
**A.** Its Ki is < 200 nM.

**Q.** `Cn1nccc1-c1cccc2c1CC[C@]1(COC(N)=N1)C2` [Compound 21J] was tested. Which Ki did it give?
**A.** Its Ki is < 200 nM.

**Q.** For `Cc1noc(C)c1-c1cccc2c1CC1(COC(N)=N1)C2` (racemic) [(±)-50M], which Ki is on record?
**A.** Its Ki is < 200 nM.

**Q.** `NC1=N[C@]2(CCc3c(cccc3-c3cncs3)C2)CO1` [Compound 119] was tested. Which Ki did it give?
**A.** The Ki was < 200 nM.

**Q.** Which Ki does the source give for `NC1=NC2(CCc3ccc(-c4cccnn4)cc3C2)CO1` (racemic) [(±)-11] here?
**A.** The Ki was < 200 nM.

**Q.** How did the Ki turn out when `Cn1nccc1-c1ccc2c(c1)CC1(COC(N)=N1)C2` (racemic) [(±)-8R] was run?
**A.** The Ki was < 200 nM.

**Q.** `COc1ccc(-c2cncnc2)c2c1CCC1(COC(N)=N1)C2` (racemic) [(±)-16] was tested. Which Ki did it give?
**A.** The Ki was < 200 nM.

**Q.** How did the Ki turn out when `NC1=NC2(CCc3cccc(-c4ccccc4)c3C2)CO1` (racemic) [(±)-1G] was run?
**A.** The Ki was < 200 nM.

**Q.** `NC1=NC2(CO1)Cc1cccc(-c3cn[nH]c3)c1C2` (racemic) [(±)-50K] was tested. Which Ki did it give?
**A.** The Ki was < 200 nM.

**Q.** Which Ki does the source give for `CC1CC2(COC(N)=N2)Cc2cccc(-c3cncnc3)c21` (racemic) [(±)-58] here?
**A.** Its Ki is < 200 nM.

**Q.** With `Cc1noc(C)c1-c1ccc2c(c1)CC1(COC(N)=N1)C2` (racemic) [(±)-8S] as the compound, how does the Ki read?
**A.** The Ki was < 200 nM.

**Q.** With `Cn1nccc1-c1cccc2c1CC1(CC2)COC(N)=N1` (racemic) [(±)-6L] as the compound, how does the Ki read?
**A.** Its Ki is < 200 nM.

**Q.** How did the Ki turn out when `Cc1ncnc(C)c1-c1ccc2c(c1)CC1(CC2)COC(N)=N1` (racemic) [(±)-10B] was run?
**A.** The Ki was < 200 nM.
